Assay results taken from PMC9721025, “Pharmacokinetic study of the main components of Tanreqing capsules and Tanreqing injections in beagles by liquid chromatography–tandem mass spectrometry” (Chinese Medicine, 2022).
Read-outs that look alike come from different tables or passages of the source.

Experiments:
[1] = Pharmacokinetics in beagles, multiple-dose regimen (once per day for 7 days) of TRQI or TRQC, plasma LC-MS/MS; assay type: in vivo; details: beagle, dog
Description: (§1) 100 μL plasma sample was drawn and transferred to 1.5 mL centrifuge tube prior to 300 μL protein precipitant (3:1 [v/v] methanol/acetonitrile, containing 0.1% formic acid and 100 ng/mL IS) was added, and then the sample was vortex-mixed for 3 min. The mixture was centrifuged at 20,000 ×g for 10 min, and 100 μL supernatant was transferred to the injection vial and analyzed directly by LC–MS/MS.
(§2) This study was carried out in six beagles (three males and three females, 9.0–12.0 kg each), that were purchased from Junda Pet Hospital (Shanghai, China). This experimental protocol was approved by the Experimental Animal Ethics Committee of the Naval Military Medical University (Shanghai, China).
After the end of the single-dose experiment, the dogs in group one were given 0.5 mL/kg injection of TRQI once per day for 7 days following the wash out period, and the dogs in group two were given 0.09 g/kg TRQC once per day for 7 days. After the seventh administration, blood samples were collected at 0, 10, 20, and 40 min and then at 1, 1.5, 2, 2.5, 3, 4, 6, 8, 12, and 24 h (a total of 14 time points) and were processed as described in “Single-dose regimen” section. The resulting plasma samples were used to determine the steady-state plasma concentration of TRQI and TRQC. A crossover study was again carried out in both groups, as described in “Single-dose regimen” section, after a 7-day washing period.
(§3) All data obtained were analyzed using Drug and Statistics (DAS) 2.0 software (Chinese Society of Pharmacology), and a non-compartment analysis was used to calculate plasma pharmacokinetic parameters. The principal components of TRQI and TRQC were compared with an analysis of variance (ANOVA) and/or a two-tailed student-t test.

[2] = Pharmacokinetics in beagles, single-dose regimen of TRQI (i.v.) or TRQC (oral), plasma LC-MS/MS; assay type: in vivo, beagle; details: for AUC(0-t) / Cmax / Tmax / half-life: beagle, dog, plasma; for AUC(0-t): read-out: AUC0–24 h; for Cmax / Tmax / half-life: mean of six beagles
Description: as §1, §2
The six healthy beagles were divided into two groups: beagles 1–3 were all male and were assigned to the first group, and beagles 4–6 were all females and assigned to the second group. The two-cycle, crossover study was designed with a 7-day wash out period. For the single-administration process, the dogs in the first group were injected intravenously with 0.5 mL/kg TRQI (one-third of the normal daily dose), and blood samples were collected at 0, 5, 10, 15, 20, 30, and 45 min and then at 1, 2, 4, 6, 8, 12, and 24 h (a total of 14 time points) after injection. For each blood sample, 1 mL of blood was collected from the forelimb vein in heparin-treated tubes. The dogs in the second group were orally administrated 0.09 g/kg TRQC (one-third of the normal daily dose, and blood samples were collected in the same manner at 0, 10, 20, and 40 min and then at 1, 1.5, 2, 2.5, 3, 4, 6, 8, 12, and 24 h (a total of 14 time points). All blood samples were centrifuged at 4000 × g for 5 min, and each supernatant was collected and aliquoted. After a 7-day wash out period, the dogs in each group were administrated the other Tanreqing formulation in a crossover design, and blood samples were collected and processed in the same way.
as §3

[3] = Stability of analytes in dog plasma (QC samples); assay type: in vitro ADME
Description: The stock solutions of all analytes were further mixed and diluted with methanol/water (10:90, v/v) solution to prepare the working solutions. […] The QC samples were stored in a refrigerator at – 80 °C until retrieval (see Additional file 1). The stability, which includes short-term stability (6 h at room temperature), long-term stability (− 80 °C for 30 days in the refrigerator), and freeze–thaw stability (three cycles from − 80 °C to room temperature), were assessed using QC samples at three concentration levels in three replicates. […] Similarly, there were no obvious effects on the analysis results of the samples with respect to short-term stability or long-term storage.

[4] = Tanreqing injection, cited from earlier work
[5] = both sexes, iv, TRQI 0.5 mL/kg once per day for 7 days, mean
[6] = both sexes, po, TRQC 0.09 g/kg once per day for 7 days, mean
[7] = both sexes, iv, single i.v. dose of TRQI 0.5 mL/kg
[8] = both sexes, single oral dose of TRQC 0.09 g/kg
[9] = n = 3, high QC: nominal 200 ng/mL baicalin, 1000 ursodeoxycholic acid, 100 chenodeoxycholic acid and chlorogenic acid
[10] = n = 3, low QC: nominal 4 ng/mL baicalin, 20 ursodeoxycholic acid, 2 chenodeoxycholic acid and chlorogenic acid
[11] = n = 3, middle QC: nominal 20 ng/mL baicalin, 100 ursodeoxycholic acid, 10 chenodeoxycholic acid and chlorogenic acid

In the case of `C[C@H](CCC(=O)O)[C@H]1CC[C@H]2[C@@H]3[C@H](O)C[C@@H]4C[C@H](O)CC[C@]4(C)[C@H]3CC[C@]12C` [Chenodeoxycholic acid, chenodeoxycholic acid], the AUC(0-inf) ([1]; both sexes, iv, 0.5 mL/kg, TRQI 0.5 mL/kg for 7 days, Mean) is reported as 5030 ng·h/mL, the AUC(0-t) ([1]; both sexes, iv, 0.5 mL/kg, TRQI 0.5 mL/kg for 7 days, Mean, read-out: AUC0–24 h) is reported as 4070 ng·h/mL and the Cmax at 7 days [1, 5] is reported as 968 ng/mL. For the same molecule, the half-life at 7 days [1, 5] was 6.25 h, the AUC(0-inf) ([1]; both sexes, po, 0.09 g/kg, TRQC 0.09 g/kg for 7 days, Mean) was 3710 ng·h/mL and the AUC(0-t) ([1]; both sexes, po, 0.09 g/kg, TRQC 0.09 g/kg for 7 days, Mean, read-out: AUC0–24 h) was 3430 ng·h/mL. It also gave a Cmax at 7 days [1, 6] of 521 ng/mL, a Tmax at 7 days [1, 6] of 4.72 h and a half-life at 7 days [1, 6] of 13.7 h. The AUC(0-inf) ([1]; female, iv, 0.5 mL/kg, TRQI 0.5 mL/kg for 7 days, beagle No. 4) was 6190 ng·h/mL, the AUC(0-t) ([1]; female, iv, 0.5 mL/kg, TRQI 0.5 mL/kg for 7 days, beagle No. 4, read-out: AUC0–24 h) was 669 ng·h/mL and the AUC(0-inf) ([1]; female, iv, 0.5 mL/kg, TRQI 0.5 mL/kg for 7 days, beagle No. 5) was 399 ng·h/mL. The AUC(0-t) ([1]; female, iv, 0.5 mL/kg, TRQI 0.5 mL/kg for 7 days, beagle No. 5, read-out: AUC0–24 h) was 234 ng·h/mL, the AUC(0-inf) ([1]; female, iv, 0.5 mL/kg, TRQI 0.5 mL/kg for 7 days, beagle No. 6) was 138 ng·h/mL and the AUC(0-t) ([1]; female, iv, 0.5 mL/kg, TRQI 0.5 mL/kg for 7 days, beagle No. 6, read-out: AUC0–24 h) was 138 ng·h/mL. The AUC(0-inf) ([1]; female, po, 0.09 g/kg, TRQC 0.09 g/kg for 7 days, beagle No. 4) was 16800 ng·h/mL, the AUC(0-t) ([1]; female, po, 0.09 g/kg, TRQC 0.09 g/kg for 7 days, beagle No. 4, read-out: AUC0–24 h) was 16700 ng·h/mL and the AUC(0-inf) ([1]; female, po, 0.09 g/kg, TRQC 0.09 g/kg for 7 days, beagle No. 5) was 1960 ng·h/mL. It also gave an AUC(0-t) ([1]; female, po, 0.09 g/kg, TRQC 0.09 g/kg for 7 days, beagle No. 5, read-out: AUC0–24 h) of 500 ng·h/mL, an AUC(0-inf) ([1]; female, po, 0.09 g/kg, TRQC 0.09 g/kg for 7 days, beagle No. 6) of 761 ng·h/mL and an AUC(0-t) ([1]; female, po, 0.09 g/kg, TRQC 0.09 g/kg for 7 days, beagle No. 6, read-out: AUC0–24 h) of 760 ng·h/mL. It also gave an AUC(0-inf) ([1]; male, iv, 0.5 mL/kg, TRQI 0.5 mL/kg for 7 days, beagle No. 1) of 20000 ng·h/mL, an AUC(0-t) ([1]; male, iv, 0.5 mL/kg, TRQI 0.5 mL/kg for 7 days, beagle No. 1, read-out: AUC0–24 h) of 20000 ng·h/mL and an AUC(0-inf) ([1]; male, iv, 0.5 mL/kg, TRQI 0.5 mL/kg for 7 days, beagle No. 2) of 183 ng·h/mL. For the same molecule, the AUC(0-t) ([1]; male, iv, 0.5 mL/kg, TRQI 0.5 mL/kg for 7 days, beagle No. 2, read-out: AUC0–24 h) was 121 ng·h/mL, the AUC(0-inf) ([1]; male, iv, 0.5 mL/kg, TRQI 0.5 mL/kg for 7 days, beagle No. 3) was 3250 ng·h/mL and the AUC(0-t) ([1]; male, iv, 0.5 mL/kg, TRQI 0.5 mL/kg for 7 days, beagle No. 3, read-out: AUC0–24 h) was 3240 ng·h/mL. For the same molecule, the AUC(0-inf) ([1]; male, po, 0.09 g/kg, TRQC 0.09 g/kg for 7 days, beagle No. 1) was 231 ng·h/mL, the AUC(0-t) ([1]; male, po, 0.09 g/kg, TRQC 0.09 g/kg for 7 days, beagle No. 1, read-out: AUC0–24 h) was 195 ng·h/mL and the AUC(0-inf) ([1]; male, po, 0.09 g/kg, TRQC 0.09 g/kg for 7 days, beagle No. 2) was 1930 ng·h/mL. The AUC(0-t) ([1]; male, po, 0.09 g/kg, TRQC 0.09 g/kg for 7 days, beagle No. 2, read-out: AUC0–24 h) was 1900 ng·h/mL, the AUC(0-inf) ([1]; male, po, 0.09 g/kg, TRQC 0.09 g/kg for 7 days, beagle No. 3) was 538 ng·h/mL and the AUC(0-t) ([1]; male, po, 0.09 g/kg, TRQC 0.09 g/kg for 7 days, beagle No. 3, read-out: AUC0–24 h) was 493 ng·h/mL. For the same molecule, the “time at which oral absorption reached a peak” value ([2]; TRQC, oral, dogs) was about 5 h, the AUC(0-t) ([2]; both sexes, iv, 0.5 mL/kg, single TRQI 0.5 mL/kg, Mean) was 359 ng·h/mL and the Cmax [2, 7] was 120 ng/mL. The Tmax [2, 7] was 1.07 h, the half-life [2, 7] was 5.67 h and the AUC(0-t) ([2]; both sexes, po, 0.09 g/kg, single TRQCs 0.09 g/kg, Mean) was 553 ng·h/mL. It also gave a Cmax [2, 8] of 99.8 ng/mL, a Tmax [2, 8] of 7.53 h and a half-life [2, 8] of 5.93 h. For the same molecule, the AUC(0-t) ([2]; female, iv, 0.5 mL/kg, single TRQI 0.5 mL/kg, beagle No 4) was 89 ng·h/mL, the AUC(0-t) ([2]; female, iv, 0.5 mL/kg, single TRQI 0.5 mL/kg, beagle No 5) was 137 ng·h/mL and the AUC(0-t) ([2]; female, iv, 0.5 mL/kg, single TRQI 0.5 mL/kg, beagle No 6) was 95 ng·h/mL. For the same molecule, the AUC(0-t) ([2]; female, po, 0.09 g/kg, single TRQCs 0.09 g/kg, beagle No 4) was 1330 ng·h/mL, the AUC(0-t) ([2]; female, po, 0.09 g/kg, single TRQCs 0.09 g/kg, beagle No 5) was 126 ng·h/mL and the AUC(0-t) ([2]; female, po, 0.09 g/kg, single TRQCs 0.09 g/kg, beagle No 6) was 1080 ng·h/mL. The AUC(0-t) ([2]; male, iv, 0.5 mL/kg, single TRQI 0.5 mL/kg, beagle No 1) was 1490 ng·h/mL, the AUC(0-t) ([2]; male, iv, 0.5 mL/kg, single TRQI 0.5 mL/kg, beagle No 2) was 108 ng·h/mL and the AUC(0-t) ([2]; male, iv, 0.5 mL/kg, single TRQI 0.5 mL/kg, beagle No 3) was 238 ng·h/mL. It also gave an AUC(0-t) ([2]; male, po, 0.09 g/kg, single TRQCs 0.09 g/kg, beagle No 1) of 104 ng·h/mL, an AUC(0-t) ([2]; male, po, 0.09 g/kg, single TRQCs 0.09 g/kg, beagle No 2) of 257 ng·h/mL and an AUC(0-t) ([2]; male, po, 0.09 g/kg, single TRQCs 0.09 g/kg, beagle No 3) of 421 ng·h/mL. For the same molecule, the “Freeze-thaw stability (3 cycles) Mean ± S.D. concentration” value (“Freeze-thaw stability” for short) [3, 9] was 95.70 ± 4.66 ng/mL, the “Long-term stability (30 days at – 80 °C) Mean ± S.D. concentration” value (“Long-term stability” below) [3, 9] was 101.23 ± 5.13 ng/mL and the “Short-term stability (6 h at room temperature) Mean ± S.D concentration” value (“Short-term stability” for short) [3, 9] was 101.57 ± 0.54 ng/mL. For the same molecule, the “Freeze-thaw stability” value [3, 10] was 1.97 ± 0.17 ng/mL, the “Long-term stability” value [3, 10] was 1.92 ± 0.22 ng/mL and the “Short-term stability” value [3, 10] was 1.77 ± 0.06 ng/mL. For the same molecule, the “Freeze-thaw stability” value [3, 11] was 9.37 ± 0.95 ng/mL, the “Long-term stability” value [3, 11] was 10.10 ± 0.36 ng/mL and the “Short-term stability” value [3, 11] was 9.79 ± 0.78 ng/mL. The t1/2 ([4]; Hu's study) was 1.83 h and the t1/2 ([4]; another study) was 0.55 h.
